This note sets out measurements from patent US20160193148A1, “LIPOSOMAL FORMULATIONS FOR THE TREATMENT OF BACTERIAL INFECTIONS” (UNIVERSITY OF GEORGIA RESEARCH FOUNDATION, INC., priority 2013, published 2016).

The experiment has as its system R. equi. Put plainly: Intracellular killing of R. equi in J774.A1 macrophages. The format is cell-based, Rhodococcus equi. Particulars: 10 μg/mL; J774.A1 macrophages infected with virulent R. equi; 4 experiments. As for the experimental part: The efficacy of liposomal gentamicin compared with clarithromycin or rifampin for intracellular killing of R. equi in J774.A1 macrophages were studies in this example. […] The final concentration of gentamicin in the liposome formulations was measured and the percentage of encapsulation was calculated.
In vitro infection of J774A.1 macrophages with virulent R. equi and subsequent treatment with liposomal gentamicin (G-DP or G-PEG), clarithromycin (CLR), or rifampin (RIF) at a concentration of 10 μg/mL was performed using a published methodology (i.e. Berghaus et al. Plasma pharmacokinetics, pulmonary distribution, and in vitro activity of gamithromycin in foals. J Vet Pharmacol Ther. 2012 February; 35(1):59-66). […] Fold reduction in the number of intracellular R. equi compared to untreated cells in J774.A1 macrophages infected with virulent R. equi are presented in FIG. 2, showing mean (±SD) of 4 independent experiments.

Each structure is given as a SMILES string.

As for `CC[C@H]1OC(=O)[C@H](C)[C@@H](O[C@H]2C[C@@](C)(OC)[C@@H](O)[C@H](C)O2)[C@H](C)[C@@H](O[C@@H]2O[C@H](C)C[C@H](N(C)C)[C@H]2O)[C@](C)(OC)C[C@@H](C)C(=O)[C@H](C)[C@@H](O)[C@]1(C)O` [CLR, clarithromycin], the “mean fold-reduction in the number of intracellular R. equi compared to untreated cells” value is 1100 fold.
On to `CO[C@H]1/C=C/O[C@@]2(C)Oc3c(C)c(O)c4c(O)c(c(/C=N/N5CCN(C)CC5)c(O)c4c3C2=O)NC(=O)/C(C)=C\C=C\[C@H](C)[C@H](O)[C@@H](C)[C@@H](O)[C@@H](C)[C@H](OC(C)=O)[C@@H]1C` [RIF, rifampin], for which the “mean fold-reduction in the number of intracellular R. equi compared to untreated cells” value came out at 1500 fold.
